Measurements taken from PMC6986439, “Sultiame pharmacokinetic profile in plasma and erythrocytes after single oral doses: A pilot study in healthy volunteers” (Pharmacology Research & Perspectives, 2020).

Legend:
[1] = parameters: method as in earlier work; details: main metabolite identified in urines ref 8; cited from earlier work
[2] = test system: erythrocytes; experiment: In vitro competition studies with zonisamide and topiramate in whole blood; format: in vitro ADME, human; details: not influenced by the addition of sultiame; data not shown
Protocol: In addition, competition studies were performed with two other antiepileptic agents known for their affinity for CA (zonisamide and topiramate), added at equimolar concentration to 20 mg/L of sultiame. Similar ranges of inhibition constants for CA II were reported in the literature for these three substances.13 Samples (1 mL) were drawn before and at 2, 4, 6, 8, 10, 15, 20, 30, 45, 60, and 120 min after addition of the competitor. Sultiame, zonisamide, and topiramate concentrations were then analyzed. All samples were centrifuged at 18 620 g for 1 minutes at 4°C. Plasma, erythrocyte, and urine fractions were stored separately at − 80°C prior to analysis for a maximum of 9 months. For analysis, plasma and hemolyzed erythrocytes samples were subjected to protein precipitation with MeOH containing the internal‐standard sultiame D4 and quantified with the previously described HPLC‐MS/MS method, using matrix‐matched calibration and quality controls. The sultiame concentrations determined in erythrocytes were corrected for the 10% interstitial plasma remnant in the erythrocyte fraction after centrifugation.14

| erythrocyte/plasma ratio [2] | Compound | activity of metabolite [1] |
| --- | --- | --- |
| – | hydroxy‐sultiame | inactive |
| ~1 | CC1(C)O[C@@H]2[C@@H](CO[C@@]3(COS(N)(=O)=O)OC(C)(C)O[C@@H]23)O1 [topiramate] | – |
